# Laboratory results from ChEMBL document CHEMBL1132512, “Substituted heterocyclic analogs as selective COX-2 inhibitors in the flosulide class” (Bioorg Med Chem Lett, 1999).
# Experiments:
# [1] = biological target: T1, Prostaglandin G/H synthase 1 (Homo sapiens, UniProt P23219); experiment: Inhibition of purified recombinant human Prostaglandin G/H synthase 1
# [2] = biological target: T1, Prostaglandin G/H synthase 1; experiment: Inhibition of Prostaglandin G/H synthase 1 activity in U937 microsomal assay; type: microsomes, Microsome
# [3] = biological target: T2, Prostaglandin G/H synthase 2 (Homo sapiens, UniProt P35354); experiment: Inhibition of purified recombinant human Prostaglandin G/H synthase 2
# T2 sequence (P35354 whole entry): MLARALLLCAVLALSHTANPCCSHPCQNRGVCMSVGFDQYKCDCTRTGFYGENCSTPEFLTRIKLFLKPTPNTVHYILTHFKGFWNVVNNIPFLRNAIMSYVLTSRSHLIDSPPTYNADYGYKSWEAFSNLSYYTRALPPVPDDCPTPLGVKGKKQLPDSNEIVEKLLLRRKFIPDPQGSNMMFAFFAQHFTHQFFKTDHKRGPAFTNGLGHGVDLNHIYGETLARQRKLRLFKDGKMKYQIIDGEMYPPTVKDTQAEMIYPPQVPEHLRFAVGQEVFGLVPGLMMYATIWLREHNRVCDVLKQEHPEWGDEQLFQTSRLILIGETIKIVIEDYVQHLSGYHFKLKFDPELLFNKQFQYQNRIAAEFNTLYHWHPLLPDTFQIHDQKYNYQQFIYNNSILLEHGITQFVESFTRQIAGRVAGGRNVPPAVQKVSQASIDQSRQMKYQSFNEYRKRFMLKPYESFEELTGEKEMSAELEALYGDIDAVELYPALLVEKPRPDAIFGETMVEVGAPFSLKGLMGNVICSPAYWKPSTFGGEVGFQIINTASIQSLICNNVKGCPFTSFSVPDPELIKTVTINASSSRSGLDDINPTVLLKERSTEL
# [4] = biological target: T2, Prostaglandin G/H synthase 2; experiment: Inhibition of human Prostaglandin G/H synthase 2 expressed in CHO (chinese hamster ovary) cells; type: cell-based
# [5] = tested on: Rattus norvegicus; experiment: In vivo antiinflammatory activity expressed as 50% effective dose was evaluated at 5 hr post dosing in rat pyresis model; type: functional
# [6] = tested on: Rattus norvegicus; experiment: In vivo antiinflammatory activity expressed as 30% effective dose was evaluated in rat paw edema assay; type: functional
# [7] = tested on: Rattus norvegicus; experiment: In vivo antiinflammatory activity expressed as percent inhibition after administration of 3 mg/kg was evaluated in rat paw edema assay; type: functional
# [8] = tested on: Rattus norvegicus; experiment: In vivo antiinflammatory activity expressed as 50% effective dose was evaluated in rat paw edema assay; type: functional
# T1 sequence (P23219 whole entry): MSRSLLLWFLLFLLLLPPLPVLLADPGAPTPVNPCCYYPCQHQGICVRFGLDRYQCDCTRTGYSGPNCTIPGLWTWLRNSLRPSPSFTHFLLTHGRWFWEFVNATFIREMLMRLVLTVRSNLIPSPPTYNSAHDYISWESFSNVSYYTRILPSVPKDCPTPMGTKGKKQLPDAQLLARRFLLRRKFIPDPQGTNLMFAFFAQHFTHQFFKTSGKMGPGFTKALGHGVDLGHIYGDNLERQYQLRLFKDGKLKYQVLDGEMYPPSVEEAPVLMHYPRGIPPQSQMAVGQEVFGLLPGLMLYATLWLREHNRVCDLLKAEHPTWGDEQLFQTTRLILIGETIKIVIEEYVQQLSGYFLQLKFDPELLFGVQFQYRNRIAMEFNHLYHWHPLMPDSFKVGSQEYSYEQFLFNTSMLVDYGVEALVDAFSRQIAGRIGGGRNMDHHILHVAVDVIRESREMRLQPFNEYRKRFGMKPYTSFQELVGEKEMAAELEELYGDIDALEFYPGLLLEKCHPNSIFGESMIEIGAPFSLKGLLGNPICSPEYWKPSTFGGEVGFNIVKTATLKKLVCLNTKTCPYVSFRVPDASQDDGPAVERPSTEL
Compound,IC50 [1],IC50 [2],IC50 [3],IC50 [4],ED50 [5],ED30 [6],inhibition in vivo at 3 mg/kg [7],ED50 [8]
CS(=O)(=O)Nc1cc2c(cc1Sc1nccs1)C(=O)OC2,> 100000 nM,1300 nM,610 nM,27 nM,–,–,–,–
CCc1csc(Sc2cc3c(cc2NS(C)(=O)=O)CCC3=O)n1,~100000 nM,14000 nM,280 nM,49 nM,8.1 mg/kg,0.3 mg/kg,43%,–
C=Cc1csc(Sc2cc3c(cc2NS(C)(=O)=O)COC3=O)n1,> 100000 nM,12000 nM,310 nM,140 nM,–,–,–,–
CS(=O)(=O)Nc1cc2c(cc1Sc1ncccc1Cl)C(=O)CC2,> 100000 nM,6100 nM,520 nM,220 nM,–,–,–,–
CSc1csc(Sc2cc3c(cc2NS(C)(=O)=O)COC3=O)n1,> 100000 nM,9300 nM,290 nM,11000 nM,–,–,–,–
Cc1ccc(Sc2cc3c(cc2NS(C)(=O)=O)CCC3=O)nc1,> 100000 nM,> 100000 nM,1000 nM,640 nM,–,–,–,–
Cc1csc(Sc2cc3c(cc2NS(C)(=O)=O)CCC3=O)n1,> 100000 nM,620 nM,380 nM,30 nM,–,–,–,–
CCc1csc(Sc2cc3c(cc2NS(C)(=O)=O)COC3=O)n1,> 100000 nM,6300 nM,1000 nM,13 nM,2.7 mg/kg,0.16 mg/kg,65%,0.93 mg/kg
CS(=O)(=O)Nc1cc2c(cc1Sc1ccccn1)C(=O)CC2,> 100000 nM,> 30000 nM,810 nM,500 nM,–,–,–,–
Cc1csc(Sc2cc3c(cc2NS(C)(=O)=O)COC3=O)n1,> 100000 nM,350 nM,6900 nM,43 nM,–,–,–,–
CS(=O)(=O)Nc1cc2c(cc1Sc1ncc(Cl)cc1Cl)C(=O)CC2,> 100000 nM,4900 nM,360 nM,120 nM,–,0.7 mg/kg,–,–
CS(=O)(=O)Nc1cc2c(cc1Sc1ccc(F)cc1F)C(=O)CC2,> 100000 nM,1600 nM,–,–,–,–,–,–
Cc1nc(Sc2cc3c(cc2NS(C)(=O)=O)CCC3=O)sc1C,> 100000 nM,> 100000 nM,1700 nM,> 1800 nM,–,–,–,–
Cc1cnc(Sc2cc3c(cc2NS(C)(=O)=O)CCC3=O)s1,> 100000 nM,> 100000 nM,1500 nM,870 nM,–,–,–,–
CS(=O)(=O)Nc1cc2c(cc1Sc1nccs1)C(=O)CC2,> 100000 nM,13000 nM,480 nM,320 nM,–,–,–,–
